Patent US20260132158A1, “PHENYL OXY AMIDE KINASE INHIBITORS” (THE TRANSLATIONAL GENOMICS RESEARCH INSTITUTE, priority 2022, published 2026)

Molecular target: T1, RON Kinase (Homo sapiens, UniProt Q04912)
T1 construct: purchased Promega V8071
Assay: RON Kinase ADP Glo Assay
Assay type: biochemical
Conditions: ratio cMET IC50 / RON IC50
Protocol: RON Kinase ADP Glo Assay • Assay Buffer: 40 mM Tris-HCl, pH7.5, 20 mM MgCl2, 0.1 mg/mL BSA • RON Kinase+ADP-Glo™ Assay (Promega #: V8071) • Substrate: […] Axltide • Enzyme: 100 ng/μL RON Kinase • ATP: 10 mM • ADP-Glo™ Reagent • Kinase Detection Reagent • 384-well white assay plates Kinase assay was done by following instructions from the kit. Briefly, a ten-point serial dilution of compound was prepared at 5× in assay buffer with the final assay concentrations starting at 300 nM, 100 nM, 30 nM, 10 nM . . . 0 nM. Enzyme, substrate, and ATP were used at 25 ng, 2000 ng, and 25 µM, respectively. The assay plate was set up by mixing the components in a total reaction volume of 10 μL per well. The plate was centrifuged gently for 10 seconds and incubated at room temperature (RT) for 60 minutes in the dark. The ADP-Glo Reagent and kinase detection reagent were added and incubated as recommended. The reaction was quantified by measuring luminescence on the Perkin Elmer Envision plate reader.

T1 sequence (Q04912 25-1400): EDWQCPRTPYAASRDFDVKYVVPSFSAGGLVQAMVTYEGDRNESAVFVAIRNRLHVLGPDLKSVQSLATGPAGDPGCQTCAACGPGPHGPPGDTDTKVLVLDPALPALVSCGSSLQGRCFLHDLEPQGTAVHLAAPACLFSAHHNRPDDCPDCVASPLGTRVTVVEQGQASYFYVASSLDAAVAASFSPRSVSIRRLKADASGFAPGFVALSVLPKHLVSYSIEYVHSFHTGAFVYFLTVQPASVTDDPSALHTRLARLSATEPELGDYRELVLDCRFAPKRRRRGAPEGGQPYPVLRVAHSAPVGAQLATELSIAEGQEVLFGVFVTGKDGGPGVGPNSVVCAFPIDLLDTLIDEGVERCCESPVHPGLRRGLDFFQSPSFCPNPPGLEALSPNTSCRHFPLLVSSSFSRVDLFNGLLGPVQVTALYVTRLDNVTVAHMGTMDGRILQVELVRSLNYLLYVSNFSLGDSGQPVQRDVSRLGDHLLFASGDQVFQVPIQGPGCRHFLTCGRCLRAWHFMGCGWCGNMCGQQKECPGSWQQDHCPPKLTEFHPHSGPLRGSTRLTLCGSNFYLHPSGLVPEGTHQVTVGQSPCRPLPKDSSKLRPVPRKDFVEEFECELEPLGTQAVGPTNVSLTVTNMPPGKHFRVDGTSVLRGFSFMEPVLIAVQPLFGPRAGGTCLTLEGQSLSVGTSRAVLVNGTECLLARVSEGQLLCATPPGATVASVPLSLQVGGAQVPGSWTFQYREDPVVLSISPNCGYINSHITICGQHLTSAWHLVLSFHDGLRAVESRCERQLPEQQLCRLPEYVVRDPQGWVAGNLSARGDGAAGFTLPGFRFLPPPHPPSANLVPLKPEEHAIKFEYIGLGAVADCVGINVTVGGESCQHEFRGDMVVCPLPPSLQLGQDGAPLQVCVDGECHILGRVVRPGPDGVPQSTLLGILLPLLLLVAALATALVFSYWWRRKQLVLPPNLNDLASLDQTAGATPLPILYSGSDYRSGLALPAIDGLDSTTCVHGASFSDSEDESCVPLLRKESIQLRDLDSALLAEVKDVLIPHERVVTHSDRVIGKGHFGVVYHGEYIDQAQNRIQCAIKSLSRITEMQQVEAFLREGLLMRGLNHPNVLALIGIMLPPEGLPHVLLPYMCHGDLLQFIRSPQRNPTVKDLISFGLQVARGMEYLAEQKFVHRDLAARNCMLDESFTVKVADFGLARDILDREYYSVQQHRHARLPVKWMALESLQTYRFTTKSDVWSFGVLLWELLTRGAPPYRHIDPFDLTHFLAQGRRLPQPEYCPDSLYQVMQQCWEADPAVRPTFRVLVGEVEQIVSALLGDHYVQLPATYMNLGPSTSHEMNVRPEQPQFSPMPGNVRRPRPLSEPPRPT

CCOc1ccn(-c2ccc(F)cc2)c(=O)c1C(=O)Nc1ccc(Oc2ccnc(N)c2P(C)(C)=O)c(F)c1 [Compound 58, N-{4-[2-amino-3-(dimethylphosphoryl)-4-pyridyloxy]-3-fluorophenyl}-4-ethoxy-1-(4-fluorophenyl)-2-oxo-1,2-dihydronicotinamide]
Fold Selectivity (cMET/RON): + (represents a value below 0.5)
